Measured values reported in US20220117938A1, “COMBINATON THERAPY WITH A DON PRODRUG AND AN IMMUNE CHECKPOINT INHIBITOR” (DRACEN PHARMACEUTICALS, INC., priority 2019, published 2022).

Tested on: MC-38 tumors
Assay: Anti-tumor efficacy of Compound 1 in the subcutaneous MC-38 model: schedule comparison (Example 3)
Type: in vivo, Mus musculus
Details: for MST: endpoint tumor volume 2000 mm^3
Protocol: Female C57BL/6 mice were inoculated subcutaneously at right flank with MC-38 cells for tumor development. Six days after tumor inoculation, 64 mice with tumor size ranging from 50-100 mm^3 (average tumor size 71 mm^3) were selected and assigned into 8 groups using stratified randomization with 8 mice per group based upon their tumor volumes. The treatments were started from the day of randomization (defined as D0), Group 1 was treated with Vehicle (Tween 80:Ethanol:Saline—5:5:90 v/v/v), S.C. QD*20 days, Group 2 was treated with Compound 1 at 1 mpk S.C. QD*28 days, Group 3 was treated with Compound 1 at 0.5 mpk S.C. QD*28 days, Group 4 was treated with Compound 1 at 1.4 mpk S.C. 5-days ON 2-days OFF×4 cycles, Group 5 was treated with Compound 1 at 0.7 mpk S.C. 5-days ON 2-days OFF×4 cycles, Group 6 was treated with Compound 1 at 3 mpk qd×5, followed by 1 mpk qd×23, S.C. QD, Group 7 was treated with Compound 1 at 1.5 mpk qd×5, followed by 0.5 mpk qd×23, S.C. QD and Group 8 was treated with Compound 1 at 1.4 mpk 10-days ON 4-days OFF×2 cycles, S.C.
Species: Mus musculus; Strain: C57BL/6; Age: 6-8 weeks; Sex: female; Body weight (at treatment start): 16-20 g.
The MC-38 tumor cells were maintained in vitro as a monolayer culture in DMEM medium supplemented with 10% heat inactivated fetal bovine serum and 100 μg/mL penicillin streptomycin at 37° C. in an atmosphere of 5% CO2 in air. The tumor cells were routinely subcultured twice weekly by trypsin-EDTA treatment. The cells growing to a confluency around 70%-80% were harvested and counted for tumor inoculation. The cultured MC-38 were harvested, re-suspended in base medium at a density of 1×10^7 cells/mL with viability>90%. Each mouse was inoculated subcutaneously at the right flank with 1×10^6 cells in 0.1 ml base medium for tumor development.
The treatments were started on day 6 after tumor inoculation when the tumor size reached 50-100 mm^3 (average tumor size 71 mm^3). Each group consisted of 8 tumor-bearing mice. The testing article was administrated to the mice at a dosing volume of 10 mL/Kg according to the predetermined regimen as shown in Table 3-1.
Tumor sizes were measured three times a week in two dimensions using a caliper, and the volume expressed in mm^3 using the formula: V=0.5 a×b^2 where a and b are the long and short diameters of the tumor, respectively. The tumor sizes were then used for the calculations of both tumor growth inhibition (TGI) and T/C values.
TGI is calculated for each group using the formula: […]
TVTreatment_DayN is the average tumor volume of a treatment group on a given day, TVTreatment_Day0 is the average tumor volume of the treatment group on the first day of treatment, TVVehicle_DayN is the average tumor volume of the vehicle control group on a given day, and TVVehicle_Day0 is the average tumor volume of the vehicle group on the first day of treatment.
The T/C value (in percent) is an indication of antitumor effectiveness, T/C (%)=RTVTreatment/RTVControl×100% (RTVTreatment: the mean RTV of the treatment group; RTVControl: the mean RTV of the vehicle treated group). RTV (relative tumor volume)=TVDayN/TVDay0. TVDayN and TVDay0 is the tumor volume on day N and Day 0 respectively. T/C (%)≤42% is considered as significant antitumor activity and <10% is considered as highly significant antitumor activity by the National Cancer Institute criteria.
Relative change of body weight (RCBW) of each mouse was calculated according to the following formula: […]
Animal survival curve: When an individual animal reached to the termination endpoint (TV>2000 mm^3), the mouse was euthanized. The time from treatment initiation to the termination was deemed as its survival time. Survival curve was plotted by Kaplan-Meier method. Median survival time (MST) was calculated for each group. Increase of life span (ILS) was calculated according to the following formula: […]
ILS (%)>25% is considered as a biologically significant survival benefit. […]

[1] = 0.7 mpk S.C. 5-days ON 2-days OFF
[2] = 1.4 mpk days ON 2-days OFF x 4 cycles
[3] = 1.5 mpk qdx5, followed by 0.5 mpk qdx23
[4] = 3 mpk qdx5, followed by 1 mpk qdx23
[5] = Day 13, 0.7 mpk S.C. 5-days ON 2-days OFF
[6] = Day 13, 1.4 mpk 10-days ON 4-days OFF
[7] = Day 13, 1.4 mpk days ON 2-days OFF x 4 cycles
[8] = Day 13, 1.5 mpk qdx5, followed by 0.5 mpk qdx23
[9] = Day 13, 3 mpk qdx5, followed by 1 mpk qdx23

SMILES: CC(=O)N[C@@H](Cc1c[nH]c2ccccc12)C(=O)N[C@@H](CCC(=O)C=[N+]=[N-])C(=O)OC(C)C [Compound 1, Isopropyl (S)-2-((S)-2-acetamido-3-(1H-indol-3-yl)propanamido)-6-diazo-5-oxohexanoate]
- ILS (0.5 mpk QD*28 days): 126%
- RTV at day 13 (0.5 mpk QD*28 days): 0 ± 0
- MST (0.5 mpk QD*28 days): 43 days
- ILS [1]: 208%
- RTV at day 13 [1]: 0 ± 0
- MST [1]: 58.5 days
- ILS (1 mpk QD*28 days): 126%
- RTV at day 13 (1 mpk QD*28 days): 0 ± 0
- MST (1 mpk QD*28 days): 43 days
- ILS (1.4 mpk 10-days ON 4-days OFF): 121%
- RTV at day 13 (1.4 mpk 10-days ON 4-days OFF): 0 ± 0
- MST (1.4 mpk 10-days ON 4-days OFF): 42 days
- ILS [2]: 153%
- RTV at day 13 [2]: 0 ± 0
- MST [2]: 48 days
- ILS [3]: 121%
- RTV at day 13 [3]: 0 ± 0
- MST [3]: 42 days
- ILS [4]: 134%
- RTV at day 13 [4]: 0 ± 0
- MST [4]: 44.5 days
- Tumor volume (Mean ± SEM) (Day 11, Group 2: 1 mg/kg qdx28, sc): 15 ± 3 mm^3
- Tumor volume (Mean ± SEM) (Day 11, Group 3: 0.5 mg/kg qdx28, sc): 29 ± 3 mm^3
- Tumor volume (Mean ± SEM) (Day 11, Group 4: 1.4 mg/kg 5-days ON 2-days OFF x 4 cycles, sc): 14 ± 2 mm^3
- Tumor volume (Mean ± SEM) (Day 11, Group 5: 0.7 mg/kg 5-days ON 2-days OFF x 4 cycles, sc): 20 ± 4 mm^3
- Tumor volume (Mean ± SEM) (Day 11, Group 6: 3 mpk qdx5 followed by 1 mpk qdx23, sc): 24 ± 2 mm^3
- Tumor volume (Mean ± SEM) (Day 11, Group 7: 1.5 mpk qdx5 followed by 0.5 mpk qdx23, sc): 21 ± 2 mm^3
- Tumor volume (Mean ± SEM) (Day 11, Group 8: 1.4 mg/kg 10-days ON 4-days OFF x 2 cycles, sc): 28 ± 4 mm^3
- T/C (Day 13, 0.5 mpk QD*28 days): 0%
- TGI (Day 13, 0.5 mpk QD*28 days): 103.48%
- T/C [5]: 0%
- TGI [5]: 104.42%
- T/C (Day 13, 1 mpk QD*28 days): 0%
- TGI (Day 13, 1 mpk QD*28 days): 104.87%
- T/C [6]: 0%
- TGI [6]: 104.10%
- T/C [7]: 0%
- TGI [7]: 104.49%
- T/C [8]: 0%
- TGI [8]: 104.24%
- T/C [9]: 0%
- TGI [9]: 104.29%
- Tumor volume (Mean ± SEM) (Day 13, Group 2: 1 mg/kg qdx28, sc, 1 mg/kg): 5 ± 2 mm^3
- Tumor volume (Mean ± SEM) (Day 13, Group 3: 0.5 mg/kg qdx28, sc, 0.5 mg/kg): 24 ± 2 mm^3
- Tumor volume (Mean ± SEM) (Day 13, Group 4: 1.4 mg/kg 5-days ON 2-days OFF x 4 cycles, sc, 1.4 mg/kg): 11 ± 3 mm^3
- Tumor volume (Mean ± SEM) (Day 13, Group 5: 0.7 mg/kg 5-days ON 2-days OFF x 4 cycles, sc, 0.7 mg/kg): 13 ± 4 mm^3
- Tumor volume (Mean ± SEM) (Day 13, Group 6: 3 mpk qdx5 followed by 1 mpk qdx23, sc): 14 ± 3 mm^3
- Tumor volume (Mean ± SEM) (Day 13, Group 7: 1.5 mpk qdx5 followed by 0.5 mpk qdx23, sc): 15 ± 3 mm^3
- Tumor volume (Mean ± SEM) (Day 13, Group 8: 1.4 mg/kg 10-days ON 4-days OFF x 2 cycles, sc, 1.4 mg/kg): 17 ± 4 mm^3
- Tumor volume (Mean ± SEM) (Day 15, Group 2: 1 mg/kg qdx28, sc): 1 ± 1 mm^3
- Tumor volume (Mean ± SEM) (Day 15, Group 3: 0.5 mg/kg qdx28, sc): 17 ± 3 mm^3
- Tumor volume (Mean ± SEM) (Day 15, Group 4: 1.4 mg/kg 5-days ON 2-days OFF x 4 cycles, sc): 2 ± 1 mm^3
- Tumor volume (Mean ± SEM) (Day 15, Group 5: 0.7 mg/kg 5-days ON 2-days OFF x 4 cycles, sc): 6 ± 3 mm^3
- Tumor volume (Mean ± SEM) (Day 15, Group 6: 3 mpk qdx5 followed by 1 mpk qdx23, sc): 6 ± 2 mm^3
- Tumor volume (Mean ± SEM) (Day 15, Group 7: 1.5 mpk qdx5 followed by 0.5 mpk qdx23, sc): 9 ± 2 mm^3
- Tumor volume (Mean ± SEM) (Day 15, Group 8: 1.4 mg/kg 10-days ON 4-days OFF x 2 cycles, sc): 14 ± 3 mm^3
- Tumor volume (Mean ± SEM) (Day 18, Group 2: 1 mg/kg qdx28, sc): 1 ± 0 mm^3
- Tumor volume (Mean ± SEM) (Day 18, Group 3: 0.5 mg/kg qdx28, sc): 10 ± 2 mm^3
- Tumor volume (Mean ± SEM) (Day 18, Group 4: 1.4 mg/kg 5-days ON 2-days OFF x 4 cycles, sc): 0 ± 0 mm^3
- Tumor volume (Mean ± SEM) (Day 18, Group 5: 0.7 mg/kg 5-days ON 2-days OFF x 4 cycles, sc): 3 ± 1 mm^3
- Tumor volume (Mean ± SEM) (Day 18, Group 6: 3 mpk qdx5 followed by 1 mpk qdx23, sc): 7 ± 3 mm^3
- Tumor volume (Mean ± SEM) (Day 18, Group 7: 1.5 mpk qdx5 followed by 0.5 mpk qdx23, sc): 8 ± 2 mm^3
- Tumor volume (Mean ± SEM) (Day 18, Group 8: 1.4 mg/kg 10-days ON 4-days OFF x 2 cycles, sc): 8 ± 3 mm^3
- Tumor volume (Mean ± SEM) (Day 20, Group 2: 1 mg/kg qdx28, sc): 1 ± 0 mm^3
